Laboratory results published in US5888762A, “Neurotropic growth factors comprising a homeobox peptide” (Centre National De La Recherche Scientifique (CNRS), priority 1994, dated 1999).
Ends that are not written are not given here.

Assays:
[1] = tested on: neurons removed from rat embryos (mesencephalon, spinal cord, cortex); assay: Biological effect of pAntp on neuritic growth of cultured neurons; assay type: cell-based; details: rat embryo neurons in CDM medium, peptide 9 µg/ml (equivalent to 1.3M), 24 h
Method: The neurons removed from rat embryos (E14 to E 16) in various regions of the brain (mesencephalon, spinal cord, cortex), are inoculated into a defined medium (CHAMAK and PROCHIANTZ, DEVELOPMENT, 106, 483, 1989) which permits the survival of only the neuronal cells (CDM medium).
The peptide is added to the nerve cells at a concentration of […] (equivalent to 1.3M).

[2] = tested on: dissociated rat embryonic neurons; assay: Distribution of 35S-methionine labelled peptides in cell compartments and medium; assay type: cell-based; details: for internalization / translocation through the membrane: 35S-labelled peptides, 2 hours; for MEDIUM (peptide distribution, radioactivity in fraction) / NUCLEAR (peptide distribution, radioactivity in fraction) / POST-NUCLEAR (peptide distribution, radioactivity in fraction): 2 hours incubation, mean ± standard deviation of 6 experiments; for share of the peptides that reach the nuclei: within 2 hours
Method: Peptides pAntp50A, pAntp48S, and pAntp40P2, labelled in E. coli with ^35 S-methionine were purified and added to dissociated rat embryonic neurons. After incubation for 2 hours, the medium was recovered by centrifugation and, after lysis of the cells with NP40, nuclear and post-nuclear fractions were isolated.
Identity of the radioactive material present in the nuclei was analysed by gel electrophoresis.
After lysis of the neurons, peptide distribution in the different cell compartments and in the medium was quantified by determination of radioactivity in each fraction.

[3] = tested on: dissociated embryonic cells; assay: Confocal microscopy of fluoresceinated peptides: internalization and nuclear accumulation; assay type: cell-based, rat; details: 2 hours incubation, cells cultured 1 day before fixation
From the text: The cells were then washed, plated and cultured for 1 day before fixation.

living neurons = assay: Penetration of biotinylated pAntp fragments encompassing helix 3 into living neurons; assay type: cell-based; details: biotinylated peptides 10 μg/ml, 37° C., 3 hours, fluorinated streptavidin
Method: These peptides (10 μg/ml) were separately incubated with living neurons, at 37° C. for 3 hours.
After washing and fixation of the cells, the localisation of the peptides is checked by use of fluorinated streptavidin.

| Substance | neuritic growth [1] | internalization / translocation through the membrane [2] | MEDIUM (peptide distribution, radioactivity in fraction) [2] | NUCLEAR (peptide distribution, radioactivity in fraction) [2] | POST-NUCLEAR (peptide distribution, radioactivity in fraction) [2] | share of the peptides that reach the nuclei [2] | uptake and nuclear accumulation by confocal microscopy [3] | intracellular localization of the fluorescent label (penetration) (living neurons) |
| --- | --- | --- | --- | --- | --- | --- | --- | --- |
| pAntp40P2: mutant pAntp, Leu^40 and Thr^41 substituted by two proline residues (SEQ ID NO: 12) | none of the mutants pAntp40P2, pAntp50A, and pAntp48S was able to promote neurite growth | internalized rapidly | 87.5 ± 2.5% | 11.5 ± 2% | 1.0 ± 0.5% | 10 to 20% | taken up by all cells in the population and significant concentrations of the peptides accumulated in the nuclei | – |
| pAntp48S: mutant pAntp, Trp^48, Phe^49 and Glu^50 in helix 3 replaced by a single serine residue (SEQ ID NO. 11) | none of the mutants pAntp40P2, pAntp50A, and pAntp48S was able to promote neurite growth | unable to translocate through the membrane | 96.5 ± 1% | 2.5 ± 0.5% | 1.0 ± 0.5% | – | – | – |
| pAntp50A: mutant recombinant pAntp, Glu^50 →Ala^50 substitution in helix 3 plus His^36 →Tyr cloning artifact (SEQ ID NO: 10) | none of the mutants pAntp40P2, pAntp50A, and pAntp48S was able to promote neurite growth | internalized rapidly | 75.0 ± 6% | 19.0 ± 5% | 6.0 ± 1% | 10 to 20% | taken up by all cells in the population and significant concentrations of the peptides accumulated in the nuclei | – |
| pAntp 41-55: synthetic biotinylated peptide, amino-acids 41-55 of pAntp (SEQ ID NO: 9) | – | – | – | – | – | – | – | not |
| pAntp 41-60: synthetic biotinylated peptide, amino-acids 41-60 of pAntp (SEQ ID NO: 7) (TERQIKIWFQNRRMKWKKEN; also: biotinylated, site not given here) | – | – | – | – | – | – | – | intracellular localization of the fluorescent label |
| pAntp 43-58: synthetic biotinylated peptide, amino-acids 43-58 of pAntp, helix 3 (SEQ ID NO: 8) (RQIKIWFQNRRMKWKK; also: biotinylated, site not given here) | – | – | – | – | – | – | – | intracellular localization of the fluorescent label |
